Data: patent US20220289732A1, “HETEROCYCLIC WDR5 INHIBITORS AS ANTI-CANCER COMPOUNDS” (NOVARTIS AG, priority 2019, published 2022)

Columns and labels:
WDR5 = WDR5 (Homo sapiens, UniProt P61964); experiment: WDR5 HTRF binding assay; details: read-out: (a) WDR5 HTRF Pep Val v.1[Inhibitor/IC50]Qualified AC50
How it was run: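 In this HTRF displacement format, biotinylated MLL1 WIN peptide (3762-3773, 20 nM) binds WDR5 (6 nM) in 25 mM Hepes pH 7.5 with 100 mM NaCl, 2 mM DTT and 0.1% BSA for 20 min at rt. Detection used streptavidin-APC/anti-His-Eu for 1 hr. IC50 came from dose-response fits of normalized signal; 15 nM biotin-PEG-His peptide served as counter assay.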

[1] = biological target: wild type MLL1 four-member complex (MLL1-4C) (Homo sapiens, UniProt P61964); experiment: MLL1 LC-MS assay (SAH production); type: biochemical; details: read-out: (b) MLL LCMS Peptide Val.v.1 Qualified AC50
How it was run: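 SAH formation, measured by LC-MS/MS after a TFA quench containing d4-SAH, was normalised to no-compound and no-enzyme controls and fitted to a dose-response curve for IC50. Reactions ran 120 min at rt (pH 8.0 Tris buffer) with final 30 nM MLL1 four-member complex, 2.5 μM SAM and 10 μM biotinylated H3[1-21] peptide, after a 20-min enzyme/SAM-compound preincubation.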

MV4-11 cells = experiment: MV4-11 6-day cell growth CTG (CellTiter-Glo) assay; type: cell-based; details: Homo sapiens, MV4-11, 144 h, 6 days, read-out: (c) MLL/WDR5 cell proliferation assay//MLL/WDR5 proliferation MV4:11 Qualified AC50
How it was run: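 IC50 comes from a dose-response fit of % inhibition relative to DMSO controls, with viable cells measured by CellTiter-Glo luminescence. Compounds were tested over 12 points (1:3, starting at 50 μM final) on MV4-11 cells plated at 300/well and grown 6 days.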

CNc1nccn1Cc1cc(CN2CC(F)C2)c2c(c1)C(=O)N(Cc1cc(OC)c(F)cn1)CC2 [Example 30, 2-((5-fluoro-4-methoxypyridin-2-yl)methyl)-5-((3-fluoroazetidin-1-yl)methyl)-7-((2-(methylamino)-1H-imidazol-1-yl)methyl)-3,4-dihydroisoquinolin-1(2H)-one]
10 to 1000 nM: IC50 (WDR5) | AC50 [1] | AC50 (MV4-11 cells)

CNc1nccn1Cc1cc(CN2CC(OC)C2)c2c(c1)C(=O)N([C@@H](C)c1cc(OC)c(F)cn1)CC2 [Example 31, (S)-2-(1-(5-fluoro-4-methoxypyridin-2-yl)ethyl)-5-((3-methoxyazetidin-1-yl)methyl)-7-((2-(methylamino)-1H-imidazol-1-yl)methyl)-3,4-dihydroisoquinolin-1(2H)-one]
10 to 1000 nM: IC50 (WDR5) | AC50 [1] | AC50 (MV4-11 cells)

CCOc1cc([C@H](C)N2CCc3c(CN(C)C)cc(Cn4ccnc4NC)cc3C2=O)cnc1C#N [Example 32, (S)-5-(1-(5-((dimethylamino)methyl)-7-((2-(methylamino)-1H-imidazol-1-yl)methyl)-1-oxo-3,4-dihydroisoquinolin-2(1H)-yl)ethyl)-3-ethoxypicolinonitrile]
10 to 1000 nM: IC50 (WDR5) | AC50 [1] | AC50 (MV4-11 cells)

CNc1nccn1Cc1cc(CN2CC(F)C2)c2c(c1)C(=O)N(Cc1cnc(F)c(OC)c1)CC2 [Example 33, 2-((6-fluoro-5-methoxypyridin-3-yl)methyl)-5-((3-fluoroazetidin-1-yl)methyl)-7-((2-(methylamino)-1H-imidazol-1-yl)methyl)-3,4-dihydroisoquinolin-1(2H)-one]
10 to 1000 nM: IC50 (WDR5) | AC50 [1] | AC50 (MV4-11 cells)

CNc1nccn1Cc1cc(CN2CC(F)(F)C2)c2c(c1)C(=O)N([C@@H](C)c1cnc(F)c(OC)c1)CC2 [Example 34, (S)-5-((3,3-difluoroazetidin-1-yl)methyl)-2-(1-(6-fluoro-5-methoxypyridin-3-yl)ethyl)-7-((2-(methylamino)-1H-imidazol-1-yl)methyl)-3,4-dihydroisoquinolin-1(2H)-one]
10 to 1000 nM: IC50 (WDR5) | AC50 [1] | AC50 (MV4-11 cells)

CNc1nccn1Cc1cc(CN(C)CC(F)F)c2c(c1)C(=O)N([C@@H](C)c1cc(OC)c(F)cn1)CC2 [Example 35, (S)-5-(((2,2-difluoroethyl)(methyl)amino)methyl)-2-(1-(5-fluoro-4-methoxypyridin-2-yl)ethyl)-7-((2-(methylamino)-1H-imidazol-1-yl)methyl)-3,4-dihydroisoquinolin-1(2H)-one]
10 to 1000 nM: IC50 (WDR5) | AC50 [1] | AC50 (MV4-11 cells)

CNc1nccn1Cc1cc(CN2CC[C@@H](OC)C2)c2c(c1)C(=O)N([C@@H](C)c1cc(OC)c(F)cn1)CC2 [Example 36, 2-((S)-1-(5-fluoro-4-methoxypyridin-2-yl)ethyl)-5-(((R)-3-methoxypyrrolidin-1-yl)methyl)-7-((2-(methylamino)-1H-imidazol-1-yl)methyl)-3,4-dihydroisoquinolin-1(2H)-one]
10 to 1000 nM: IC50 (WDR5) | AC50 [1] | AC50 (MV4-11 cells)

CCOc1cc([C@H](C)N2CCc3c(CN4CC[C@H](F)C4)cc(Cn4ccnc4NC)cc3C2=O)ncc1F [Example 37, 2-((S)-1-(4-ethoxy-5-fluoropyridin-2-yl)ethyl)-5-(((S)-3-fluoropyrrolidin-1-yl)methyl)-7-((2-(methylamino)-1H-imidazol-1-yl)methyl)-3,4-dihydroisoquinolin-1(2H)-one]
10 to 1000 nM: IC50 (WDR5) | AC50 [1] | AC50 (MV4-11 cells)

CNc1nccn1Cc1cc(CN2CC(F)(F)C2)c2c(c1)C(=O)N(Cc1cc(OC)c(F)cn1)CC2 [Example 38, 5-((3,3-difluoroazetidin-1-yl)methyl)-2-((5-fluoro-4-methoxypyridin-2-yl)methyl)-7-((2-(methylamino)-1H-imidazol-1-yl)methyl)-3,4-dihydroisoquinolin-1(2H)-one]
10 to 1000 nM: IC50 (WDR5) | AC50 [1] | AC50 (MV4-11 cells)

CCOc1cc([C@H](C)N2CCc3c(CN4CC(F)C4)cc(Cn4ccnc4NC)cc3C2=O)ncc1F [Example 39, (S)-2-(1-(4-ethoxy-5-fluoropyridin-2-yl)ethyl)-5-((3-fluoroazetidin-1-yl)methyl)-7-((2-(methylamino)-1H-imidazol-1-yl)methyl)-3,4-dihydroisoquinolin-1(2H)-one]
10 to 1000 nM: IC50 (WDR5) | AC50 [1] | AC50 (MV4-11 cells)

CCOc1cc([C@H](C)N2CCc3c(CN4CC(F)(F)C4)cc(Cn4ccnc4NC)cc3C2=O)ncc1C#N [Example 40, (S)-6-(1-(5-((3,3-difluoroazetidin-1-yl)methyl)-7-((2-(methylamino)-1H-imidazol-1-yl)methyl)-1-oxo-3,4-dihydroisoquinolin-2(1H)-yl)ethyl)-4-ethoxynicotinonitrile]
10 to 1000 nM: IC50 (WDR5) | AC50 [1] | AC50 (MV4-11 cells)

CCOc1cc([C@H](C)N2CCc3c(CN4CC(F)C4)cc(Cn4ccnc4NC)cc3C2=O)cnc1C#N [Example 41, (S)-3-ethoxy-5-(1-(5-((3-fluoroazetidin-1-yl)methyl)-7-((2-(methylamino)-1H-imidazol-1-yl)methyl)-1-oxo-3,4-dihydroisoquinolin-2(1H)-yl)ethyl)picolinonitrile]
10 to 1000 nM: IC50 (WDR5) | AC50 [1] | AC50 (MV4-11 cells)

CNc1nccn1Cc1cc(CN2CC(F)C2)c2c(c1)C(=O)N([C@@H](C)c1cc(OC)c(F)cn1)CC2 [Example 42]
10 to 1000 nM: IC50 (WDR5) | AC50 [1] | AC50 (MV4-11 cells)

CNc1nccn1Cc1cc(CN2CC(F)C2)c2c(c1)C(=O)N([C@@H](C)c1cnc(F)c(OC)c1)CC2 [Example 43, (S)-2-(1-(6-fluoro-5-methoxypyridin-3-yl)ethyl)-5-((3-fluoroazetidin-1-yl)methyl)-7-((2-(methylamino)-1H-imidazol-1-yl)methyl)-3,4-dihydroisoquinolin-1(2H)-one]
10 to 1000 nM: IC50 (WDR5) | AC50 [1] | AC50 (MV4-11 cells)

CNc1nccn1Cc1cc(CN2CC[C@H](F)C2)c2c(c1)C(=O)N([C@@H](C)c1cc(OC)c(F)cn1)CC2 [Example 44, 2-((S)-1-(5-fluoro-4-methoxypyridin-2-yl)ethyl)-5-(((S)-3-fluoropyrrolidin-1-yl)methyl)-7-((2-(methylamino)-1H-imidazol-1-yl)methyl)-3,4-dihydroisoquinolin-1(2H)-one]
10 to 1000 nM: IC50 (WDR5) | AC50 [1] | AC50 (MV4-11 cells)

CNc1nccn1Cc1cc(CN(C)C)c2c(c1)C(=O)N([C@@H](C)c1cc(OC)c(C#N)cn1)CC2 [Example 45, (S)-6-(1-(5-((dimethylamino)methyl)-7-((2-(methylamino)-1H-imidazol-1-yl)methyl)-1-oxo-3,4-dihydroisoquinolin-2(1H)-yl)ethyl)-4-methoxynicotinonitrile]
10 to 1000 nM: IC50 (WDR5) | AC50 [1] | AC50 (MV4-11 cells)

CCOc1cc(CN2CCc3c(CN4CC(F)(F)C4)cc(Cn4ccnc4NC)cc3C2=O)cnc1C#N [Example 46, 5-((5((3,3-difluoroazetidin-1-yl)methyl)-7-((2-(methylamino)-1H-imidazol-1-yl)methyl)-1-oxo-3,4-dihydroisoquinolin-2(1H)-yl)methyl)-3-ethoxypicolinonitrile]
10 to 1000 nM: IC50 (WDR5) | AC50 [1] | AC50 (MV4-11 cells)

CNc1nccn1Cc1cc(CN(C)CC(F)(F)F)c2c(c1)C(=O)N([C@@H](C)c1cc(OC)c(F)cn1)CC2 [Example 47, (S)-2-(1-(5-fluoro-4-methoxypyridin-2-yl)ethyl)-5-((methyl(2,2,2-trifluoroethyl)amino)methyl)-7-((2-(methylamino)-1H-imidazol-1-yl)methyl)-3,4-dihydroisoquinolin-1(2H)-one]
10 to 1000 nM: IC50 (WDR5) | AC50 [1] | AC50 (MV4-11 cells)

CNc1nccn1Cc1cc(CN2CC(F)(F)C2)c2c(c1)C(=O)N([C@@H](C)c1cc(OC)c(F)cn1)CC2 [Example 48, (S)-5-((3,3-difluoroazetidin-1-yl)methyl)-2-(1-(5-fluoro-4-methoxypyridin-2-yl)ethyl)-7-((2-(methylamino)-1H-imidazol-1-yl)methyl)-3,4-dihydroisoquinolin-1(2H)-one]
10 to 1000 nM: IC50 (WDR5) | AC50 [1] | AC50 (MV4-11 cells)

CNc1nccn1Cc1cc(CN(C)CCF)c2c(c1)C(=O)N([C@@H](C)c1cc(OC)c(F)cn1)CC2 [Example 49, (S)-2-(1-(5-fluoro-4-methoxypyridin-2-yl)ethyl)-5-(((2-fluoroethyl)(methyl)amino)methyl)-7-((2-(methylamino)-1H-imidazol-1-yl)methyl)-3,4-dihydroisoquinolin-1(2H)-one]
10 to 1000 nM: IC50 (WDR5) | AC50 [1] | AC50 (MV4-11 cells)

CCOc1cc([C@H](C)N2CCc3c(CN(C)C)cc(Cn4ccnc4NC)cc3C2=O)ncc1C#N [Example 50, (S)-6-(1-(5-((dimethylamino)methyl)-7-((2-(methylamino)-1H-imidazol-1-yl)methyl)-1-oxo-3,4-dihydroisoquinolin-2(1H)-yl)ethyl)-4-ethoxynicotinonitrile]
10 to 1000 nM: IC50 (WDR5) | AC50 [1] | AC50 (MV4-11 cells)
